[mp] = methylphosphonate linkage
Columns and labels:
[1] = tested on: complementary RNA targets; assay: Tm of Rp-enriched versus racemic methylphosphonate oligomers with RNA (Example 33); assay type: binding; details: for Tm: 2.4 μM total strand concentration, pH 7.2, 100 mM sodium chloride
S1-endonuclease = assay: Stability to nuclease digestion by S1-endonuclease (Example 37); assay type: in vitro ADME; details: S1-endonuclease 0.5 units/mL, pH 5.0, 37° C.; 50% full length oligomer digested
Description: The following oligomers were tested for nuclease stability in the presence of S1-endonuclease.
S1-endonuclease was purchased from Promega Corp. (Catalog #E576B, Madison, Wis.). Aliquots of each chimeric oligomer (0.05-0.075 OD260 units) were individually added to polypropylene microcentrifuge tubes containing S1-endonuclease (0.5 units/mL) in 30 mM sodium acetate (pH 5.0), 50 mM NaCl, 1.0 mM zinc acetate and 5% glycerol; total reaction volume=10 μL. These tubes were incubated at 37° C. for specified time periods, quickly frozen in dry ice and then stored in a freezer at -20° C. […] Column=Vydac Protein C4 (catalog #214TP54, 4.9 mm i.d.×250 mm long). Buffer A=50 mM triethylammonium acetate (pH 7)/1% acetonitrile; Buffer B=50 mM triethylammonium acetate (pH 7)/50% acetonitrile. […] The samples were diluted with water (50 μL) and injected onto the column using a 100 μL sample loop. Peaks corresponding to full length oligomer and its degradation products were detected by monitoring at 260 nm. The amount of degradation occurring in each reaction was determined by measuring the reduction in peak area for the full-length oligomer (identified by comparison to an external control and/or by coinjecting undigested oligomer as an internal control). The data is shown in tabular format below, and in graphic format in FIG. 1.

[2] = tested on: complementary synthetic RNA target; assay: Binding affinities of chimeric backbone oligomers to RNA (Example 35); design: KA (37° C.): unit not given here; details: for Tm: 1:1 molar ratio, 2.4 micromolar total strand, pH 7.2, 100 mM NaCl; for KA (37° C.): two-state model fit
Description: The following oligonucleotides were tested for their ability to hybridize to a complementary synthetic RNA target.
The bases shown in parentheses contain the backbone modification indicated in the middle set of brackets for each description, and likewise the terminal portions of the oligomers contain linkage structures as shown in the terminal sets of brackets. The PS/DE notation indicates an alternating array of bases beginning with a phosphorothioate linkage. For example, if there are five bases in a sequence denoted as PS/DE, they include three phosphorothioate (PS) bonds and two phosphodiester (DE) bonds.
Each oligomer was mixed with its complementary synthetic RNA target in a 1:1 molar ratio in a buffer system consisting of 20 mM sodium phosphate buffer (pH 7.2), 100 mM NaCl, 0.03% potassium sarkosylate and 0.1 mM EDTA; total strand concentration=2.4 micromolar. The resulting solutions were heated to 70° C. and slowly cooled to 4° C. over a time period of approximately 4-6 hours. […] The binding constants at 37° C.

[3] = Stability to nuclease digestion in 10% fetal calf serum (Example 38); assay type: in vitro ADME; details: pH 8.0, 37° C., 50% full length oligomer digested, first three time points
Description: Multiple samples of each chimeric oligomer were prepared in 1.5 mL polypropylene microcentrifuge tubes on ice. Each sample contained oligomer (0.1 OD260 unit), 10% fetal calf serum (FCS, Gemini Bioproducts, Calabasas, Calif.), 20 mM HEPES (pH 8.0), 0.2% paramethylsulfonyl fluoride (PMSF), 175 mM KCl, 0.1 mM dithiothreitol, 0.1 mM EDTA, 2 mM MgCl2 and 4% glycerol--total volume=100 μL. The samples were incubated at 37° C. for specified time periods and then diluted with 0.4% NP-40/acetonitrile (35 μL), quickly frozen on dry ice and stored at -20° C. Samples were then individually thawed, diluted with water (635 μL) and analyzed immediately by reversed-phase HPLC according to the method given in the preceding example (except that a 2 mL sample loop was used to load the samples onto the column). Results are shown in tabular format below, and in graphical format in FIG. 2.

[4] = tested on: endogenous eukaryotic RNaseH derived from HeLa cell nuclear extracts; assay type: biochemical; details: 10 μM oligomer, 1 μM RNA target
pG1035 (SplicerCAT) = assay: Inhibition of CAT expression, splicing target pG1035 (SplicerCAT), in COS-7 cells; assay type: cell-based, African Green Monkey; details: 1.0 μM oligomer; ± std error; normalized to protein and luciferase; chimeric oligomers also normalized to pG1036
Description: COS-7 cells were transiently transfected with plasmids encoding either a target reporter gene or a control non-target reporter gene. These cells were then treated with various chimeric antisense or control oligomers and then assayed for the expression of the reporter genes.
pG1035: Splicer CAT, inserted into a pRc/CMV vector
COS 7 cells were plated at 1.5×10^5 cells/well in a 12 well plate format on the day before transfections began. All cultures were maintained at 37° C. On the next day, the transfection mixes were prepared. For each well of a 12 well plate, 1.0 μM oligomer was combined with 1 μg pGL2 or pSVβ+1 μg of the target CAT plasmid in 0.5 ml of Optimem (Gibco/BRL) and 18.75 μg Transfectam (for chimeric oligomers, Promega) or Lipofectamine (for all PS oligomers, Promega) also in 0.5 ml of Optimem. These quantities gave a 6.9 or 4.5 or 2.0 to 1 cationic lipid to oligomer plus DNA ratio, respectively, in one milliliter total. pGL2 and pSVβ served as transfection and oligomer specificity controls. […]
The cell lysates were then assayed for CAT, and luciferase or […] activity, and the total protein concentration was determined as described below. […]
[…] of reaction mixture was then added to each tube, which was then incubated for, typically, approximately 1 hour in a 37° C. oven. […] The sample was then counted in a Packard scintillation counter.
This assay was performed generally as follows according to standard procedures. 20 μof lysate was combined with 100 μl of luciferase assay reagent (Promega) and counted in a scintillation counter (Packard) within 20 seconds (as recommended by Promega). […]
Six μl of lysate per well was added, followed by 300 μl Coomassie Protein Assay Reagent (Pierce) per well. The individual sample plates were then read at A570 on a microplate reader (Molecular Devices). […]
Oligomers were transfected into COS-7 cells and lysates were made and assayed as described previously. […] N.D.=not determined. […]

Substance	Tm [1] [°C]	Tm [2] [°C]	KA (37° C.) [2]	also measured
1634-1: 5'-TAG-CTT-CCT-TAG-CTC-CTG-3', racemic methylphosphonate (TAGCTTCCTTAGCTCCTG; all [mp], sugars by position and methylation of C not given here) [Oligomer 1634-1]	38.2	–	–	–
2253-1: 5'-AGA-GAG-AGA-GAG-AG-T-3', racemic methylphosphonate (AGAGAGAGAGAGAGT; all [mp], sugars by position not given here) [Oligomer 2253-1]	48.9	–	–	–
2517-1: 5'-GTG-TGT-GTG-TGT-GTG-TA-3'-3', racemic methylphosphonate (GTGTGTGTGTGTGTGTA; all [mp], sugars by position not given here; further chemistry not fully specified) [Oligomer 2517-1]	41.0	–	–	–
2571-1: 5'-(G*T)(C*T)(T*C)(C*A)(T*G)(C*A)(T*G)(T*T)(G*T)-C-3', 75% MP(Rp) [Oligomer 2571-1]	46.3	–	–	ΔTm ([1]; Rp-enriched versus racemic oligomer of the pair): 8.2 °C
2624-1: 3'-CTGTTG TACGT ACCTTCTG-5' Racemic MP (CTGTTGTACGTACCTTCTG; racemic methylphosphonate, chemistry not fully specified; listed 3' to 5') [Oligomer 2624-1]	38.6	–	–	–
2681-1: 5'-GTCTTCCA(TGCAT)GTTGTCC-3' [MP][PS/DE][MP] [Oligomer 2681-1]	–	44.1	2.1 × 10^7	Half-Life for Degradation (S1-endonuclease): 12.2 h; Half-Life for Degradation [3]: 8.1 h
2687-1: 5'-GTCTTCCA(TGCAT)GTTGTCC-3' [75% MP(Rp)][DE][75% MP(Rp)] [Oligomer 2687-1]	–	52.8	2.6 × 10^9	–
2688-1: 5'-ATG-GTG-TCT-GTT-TGA-GGT-T-3', racemic methylphosphonate (ATGGTGTCTGTTTGAGGTT; all [mp], sugars by position and methylation of C not given here) [Oligomer 2688-1]	40.0	–	–	–
3214-1: 5'-GTCTTCCA(TGCAT)GTTGTCC-3' [MP(Rp)/DE][PS/DE][MP(Rp)/DE] [Oligomer 3214-1]	–	61.0	2.3 × 10^14	RNaseH Cleavage after 2 Hrs. at 37° C. [4]: 38.0%; Half-Life for Degradation (S1-endonuclease): 5.0 h; Half-Life for Degradation [3]: 4.3 h
3256-1: 5'-GTCTTCCA(TGCAT)GTTGTCC-3' [MP(Rp)/DE][PS][MP(Rp)/DE] [Oligomer 3256-1]	–	60.1	5.5 × 10^13	RNaseH Cleavage after 2 Hrs. at 37° C. [4]: 18.7%; Half-Life for Degradation (S1-endonuclease): 12.5 h; Half-Life for Degradation [3]: 16.2 h
3257-1: 5'-GTCTTC(CATGCAT)GTTGTCC-3' [MP(Rp)/DE][PS/DE][MP(Rp)/DE] [Oligomer 3257-1]	–	60.9	2.1 × 10^14	–
XV-7: 24mer, all phosphorothioate: 5' ccc tga gag aga gag aga ggt tcg 3' (CCCTGAGAGAGAGAGAGAGGTTCG; all phosphorothioate, sugars by position and methylation of C not given here)	–	–	–	percent inhibition of CAT expression, pG1035 = splicing (pG1035 (SplicerCAT)): 17 ± 6%

From patent US6262036A, “Method for inhibiting RNA translation using chimeric oligonucleoside compounds” (priority 2000, dated 2001)
